Test results reported in patent US20260130369A1, “MARINE ALGICIDES” (Mote Marine Laboratory, Inc., priority 2022, published 2026).

system: K. brevis; assay: K. brevis mortality test of individual pure compounds against red tide cultures; format: cell-based, Karenia brevis; conditions: 100% mortality of K. brevis within 2 hours after administration to a water sample containing K. brevis
Method: Shown below in Table 1 are one saturated fatty acid (viz., palmitic acid) and nine exemplary algicidal unsaturated fatty acids, along with their omega nomenclature (viz., number of carbon atoms, number of double bonds, number of carbon atoms from the carboxylic acid end to the first carbon in a double bond) and the required dosage in ppm to obtain 100% mortality of K. brevis, within 2 hours after administration to a water sample containing K. brevis, according to embodiments of the present disclosure.
The relative toxic effects shown in Table 1 were determined by obtaining individual pure compounds and testing them against red tide cultures of K. brevis. The compounds in Table 1 may also be tested as salts or soaps, and in water or non-methanolic solvents such as ethanol, acetone, acetic acid, dimethyl sulfoxide (DMSO) or other polar or non-polar solvent. […] In embodiments, the observed mortality may for example be at least 25%, at least 50%, at least 75%, at least 90% or as much as 100% in a desired time frame (e.g., within 2 hours, within 4 hours, within 8 hours, within 24 hours, or within 2, 3 or 4 days following application of the algicidal compound. In some embodiments, 100% death of red tide organisms may be achieved within 30 minutes of application within a target area. Additionally, extracts of macro algae common in environments suitable for K. brevis were tested to see how the mixture of fatty acids in those extracts would perform as algicidal agents. Use of a single compound instead of a mixture may be preferable under many common circumstances. However, Ulva latuca and Gracilaria tikvahiae contain mixtures of fatty acids and may be used as salts or soaps or in non-methanolic solutions to control K. brevis red tide blooms, according to embodiments of the present disclosure.
To measure K. brevis mortality in a liquid, the concentration of K. brevis is measured before any algaecides are added. An algaecide is then added, and the concentration of live K. brevis measured at intervals (e.g. 1, 2, 5, 10, 20, and 30 minutes). This may also be performed in serial stages. For example, if the mortality rate of K. brevis at 30 minutes is 100%, the experiment may be repeated and the concentration of K. brevis measured at a lesser time point, such as after 20 minutes. If the mortality rate of K. brevis is still 100%, the experiment may be repeated again with the concentration measured at a lesser time point, such as after 10 minutes. The experiment may be repeated as many times as necessary to measure how long it takes for an algaecide to reach 100% mortality rate of K. brevis. Any suitable time periods may be used to measure the concentration of K. brevis.
A variety of techniques may be used to measure K. brevis concentrations. In some embodiments, staining techniques are used. Staining may be performed with Lugol's Iodine Solution stain, which will become fixed to and stain the K. brevis so that it may be visualized. Other stains may be used, such as Invitrogen™ SYTOX™ Green from Thermo Fisher Scientific, which will penetrate compromised membranes (a feature characteristic of dead cells) of K. brevis and stain them. Fluorescein Diacetate may also be used, where live cells convert the fluorescein diacetate to […] which fluoresces and may be measured. Additionally, 4′,6-diamidino-2-phenylindole (DAPI) may also be used to stain nucleic acids that are inside or outside of cells. In addition to staining methods, the concentration of K. brevis may also be measured by other imaging techniques such as manual count, microscopy, fluorometry, flow cytometry, or other possible staining or counting techniques. FIG. 3 depicts one method of measuring K. brevis concentration using Invitrogen™ SYTOX™ Green.

Row | SMILES | Dosage (PPM) for 100% Mortality in under 2 hrs
1 | CC/C=C\C/C=C\C/C=C\C/C=C\CCC(=O)O [Hexadecatetraenoic Acid] | >1 PPM
2 | CCCCCC/C=C\CCCCCCCCCC(=O)O [Vacennic Acid] | >6 PPM
3 | CC/C=C\C/C=C\C/C=C\C/C=C\CCCCC(=O)O [Stearidonic Acid] | >2 PPM
4 | CCCCCC/C=C\CCCCCCCC(=O)O [Palmitoleic Acid] | 3 PPM
5 | CCCCC/C=C\C/C=C\C/C=C\C/C=C\CCCC(=O)O [Arachidonic Acid] | 1.5 PPM
6 | CCCCC/C=C\C/C=C\C/C=C\C/C=C\CCCCCC(=O)O [Adrenic Acid] | <50 PPM
7 | CC/C=C\C/C=C\C/C=C\C/C=C\C/C=C\C/C=C\CCC(=O)O [Docosahexanoic Acid] | <2.5 PPM
8 | CC/C=C\C/C=C\C/C=C\CCCCCCCC(=O)O [Alpha-linolenic Acid] | 3 PPM
9 | CC/C=C\C/C=C\C/C=C\C/C=C\C/C=C\CCCC(=O)O [Eicosapentaenoic Acid] | <2 PPM
10 | CCCCCCCCCCCCCCCC(=O)O [Palmitic Acid, reference compound] | >10 PPM

system: K. brevis cells; assay: Large-scale mesocosm experiment, efficacy of algicide treatment (red tide cell counts); format: cell-based, Karenia brevis; conditions: 15 or 25 ppm particles; 1400 L tanks; 1 million cells/L; first (15 minute) sampling period
Method: A large-scale mesocosm experiment was conducted to evaluate the efficacy of algicide treatment and marine organism toxicity. In each of four 1400 L exposure tanks containing K. brevis cells at a red tide concentration of 1 million cells/L, potassium ricinoleate particles were added to the tanks at levels of 15 or 25 ppm. At 15 minutes after addition of the algicidal agent to each tank, water samples were collected for red tide cell counts.
Marine organism toxicity was evaluated by adding grass shrimp or Gulf killifish to the tanks along with the red tide cells and 15 or 25 ppm of the algicidal compounds. The red tide cells were quickly killed as before. After 18 and 24 hours, all shrimp remained alive. After 18 hours all fish were alive, but significant fish mortality was observed after 24 hours. The fish mortality was determined to be due to insufficient tank water circulation and oxygenation, and repeating the fish experiment with adequate circulation and oxygenation should eliminate or at least reduce the observed fish mortality.

Row | SMILES | red tide cell mortality (no live cells under microscopic examination)
11 | CCCCCC[C@@H](O)C/C=C\CCCCCCCC(=O)[O-].[K+] [potassium ricinoleate] | complete red tide cell mortality
